Experiment [1] deals with T1, angiotensin II (AII) receptors, guinea pig adrenal gland membrane (Cavia porcellus, UniProt Q9WV26).
T1 construct: from tissue; host or cells: guinea pig adrenal gland, cell surface membrane fraction
T1 sequence (Q9WV26 1-359): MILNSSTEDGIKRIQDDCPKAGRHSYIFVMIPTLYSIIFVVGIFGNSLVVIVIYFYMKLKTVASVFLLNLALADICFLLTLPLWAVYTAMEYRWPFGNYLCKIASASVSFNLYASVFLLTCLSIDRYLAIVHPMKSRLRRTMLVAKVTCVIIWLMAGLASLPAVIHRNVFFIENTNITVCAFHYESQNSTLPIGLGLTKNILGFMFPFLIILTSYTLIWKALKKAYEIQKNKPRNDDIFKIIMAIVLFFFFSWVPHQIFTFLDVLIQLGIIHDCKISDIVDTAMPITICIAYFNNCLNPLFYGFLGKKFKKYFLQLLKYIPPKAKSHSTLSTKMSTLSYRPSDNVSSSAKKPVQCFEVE
The experiment is described as follows: Test A: displacement of radiolabelled AII binding to guinea pig adrenal cell surface membranes. Particulars: in vitro, read-out: IC50 (concentration for 50% displacement of radiolabelled AII binding). Here is the method: (§1) The antagonism of one or more of the physiological actions of AII and, in particular, the antagonism of the interaction of AII with the receptors which mediate its effects on a target tissue, may be assessed using one or more of the following, routine laboratory procedures.
Test A: This in vitro procedure involves the incubation of the test compound initially at a concentration of 100 micromolar (or less) in a buffered mixture containing fixed concentrations of radiolabelled AII and a cell surface membrane fraction prepared from a suitable angiotensin target tissue. In this test, the source of cell surface membranes is the guinea pig adrenal gland which is well known to response to AII. Interaction of the radiolabelled AII with its receptors (assessed as radiolabel bound to the particulate membrane fraction following removal of unbound radiolabel by a rapid filtration procedure such as is standard in such studies) is antagonized by compounds which also bind to the membrane receptor sites and the degree of antagonism (observed in the test as displacement of membrane-bound radioactivity) is determined readily by comparing the receptor-bound radioactivity in the presence of the test compound at the specified test concentration with a control value determined in the absence of the test compound. […]

The test system of experiment [2] is pressor responses induced by AII. As to the kind of experiment: Test C: antagonism of AII-induced pressor responses in terminally-anaesthetised or conscious rats. Type of experiment: in vivo. Particulars: iv, rat, i.v. administration, AII-induced pressor response.
Description: as §1
Test C: This in vivo test involves using terminally-anaesthetised or conscious rats in which an arterial catheter has been implanted under anaesthesia for the measurement of changes in blood pressure. The AII antagonistic effects of the test compound following oral or parenteral administration, are assessed against pressor responses induced by AII. To ensure that the effect is specific the effect of the test compound on vasopressin-induced pressor responses may also be determined in the same preparation.

Counter-ions that a name gives are not always drawn.

In general, ED50 refers to the dose that gives a 50% effect, or the effect in half of the subjects. A low value points to greater potency. `CCNC(=O)OCCOc1ccc2nc(CC)cc(OCc3ccc(-c4ccccc4-c4nn[nH]n4)cc3)c2n1` [Example 2, 2-ethyl-6-(2-ethylaminocarbonyloxy)ethoxy)-4-[(2'-(1H-tetrazol-5-yl)biphenyl-4-yl)methoxy]-1,5-naphthyridine hydrochloride]: the IC50 in experiment [1] was 18 nM. The 50% effect level in experiment [2] (ED50) was put at a dose of 0.08 mg/kg.

Source of the values: patent publication US5219863A, “Angiotensin II antagonizing compounds containing a 1,5-naphthyridine or a quinoline moiety” (Imperial Chemical Industries PLC, priority 1990, dated 1993).
